Peptide text beside a SMILES is read from it.

One data set can be described thus: Solubility of sweetening agents in medium-chain triglycerides (MCT).
Conditions: not given
As to the method: 18 mg of neotame, 20 mg of saccharin, 1 mg of sodium saccharin or 5 mg of thaumatin was mixed with medium-chain triglycerides (MCT; USP/NF) to give the total weight of 180 g, 20 g, 100 g or 500 g respectively.
Solubility and sensory tests of sweetening agents were conducted. Specifically, 7.2 mg of neotame, 20 mg of saccharin or 5 mg of sucralose was mixed with medium-chain triglycerides (MCT; USP/NF) to give the total weight of 40 g, 20 g or 100 g, respectively. Additionally, 1 mg of a sweetening agent was mixed with medium-chain triglycerides (MCT; USP/NF) to give the total weight of its mixtures of 100 g. The sweetening agent was sodium saccharin, thaumatin, aspartame, acesulfame potassium, sucrose, glucose, fructose, lactose, D-sorbitol, or xylitol.
`CC1=CC(=O)NS(=O)(=O)O1` [Acesulfame potassium, acesulfame potassium]: the “Solubility in MCT” value is listed as <0.001 w/w %.

As to `COC(=O)[C@H](Cc1ccccc1)NC(=O)[C@@H](N)CC(=O)O` [Aspartame, aspartame] (H-Asp-Phe-OMe), the “Solubility in MCT” value is <0.001 w/w %.

For the compound `OC[C@@H](O)[C@@H](O)[C@H](O)[C@@H](O)CO` [D-Sorbitol, D-sorbitol], the “Solubility in MCT” value is on record as <0.001 w/w %.

In the case of `COC(=O)[C@H](Cc1ccccc1)NC(=O)[C@H](CC(=O)O)NCCC(C)(C)C` [Neotame], the “Solubility in MCT” value came out at 0.018 w/w %; the “Solubility in MCT, in words” value is “solved in MCT”; the “Solubility to MCT” value is recorded as 0.01%.

For the compound `O=C1NS(=O)(=O)c2ccccc21` [Saccharin, 2H-1λ^6,2-benzothiazol-1,1,3-trione], the “Solubility in MCT” value is reported as 0.1 w/w %; the “Solubility in MCT, in words” value is given as “solved in MCT”; the “Solubility to MCT” value is given as 0.1%.

With `OC[C@H]1O[C@H](O[C@]2(CCl)O[C@H](CCl)[C@@H](O)[C@@H]2O)[C@H](O)[C@@H](O)[C@H]1Cl` [Sucralose, 1,6-Dichloro-1,6-dideoxy-β-D-fructofuranosyl-4-chloro-4-deoxy-α-D-galactopyranoside], the “Solubility in MCT” value was found to be 0.005 w/w % and the “Solubility in MCT, in words” value is recorded as “solved in MCT”.

`OC[C@H]1O[C@@](CO)(O[C@H]2O[C@H](CO)[C@@H](O)[C@H](O)[C@H]2O)[C@@H](O)[C@@H]1O` [Sucrose, sucrose]: the “Solubility in MCT” value is <0.001 w/w %.

For the compound `OC[C@@H](O)[C@H](O)[C@@H](O)CO` [Xylitol, xylitol], the “Solubility in MCT” value is given as <0.001 w/w %.

thaumatin: the “Solubility in MCT” value was <0.001 w/w %; the “Solubility in MCT, in words” value is “did not solve in MCT”; the “Solubility to MCT” value is recorded as <0.001%.

The data set is the same for the next values; noted with them: Example 1; medium-chain triglycerides (USP/NF).
As to `O=C1NS(=O)(=O)c2ccccc21.[Na]` [Sodium saccharin, sodium saccharin], the “Solubility to MCT” value is <0.001%.

The same data set, now with this note: Example 5; medium-chain triglycerides (USP/NF).
Take `O=C(CO)[C@@H](O)[C@H](O)[C@H](O)CO` [Fructose, fructose]: the “Solubility in MCT” value is <0.001 w/w %.

Regarding `O=C1NS(=O)(=O)c2ccccc21.[Na]` [Sodium saccharin, sodium saccharin], the “Solubility in MCT” value is given as <0.001 w/w %.

Still in this data set, the particulars now being: Examples 1 and 5.
As for `O=C1NS(=O)(=O)c2ccccc21.[Na]` [Sodium saccharin, sodium saccharin], the “Solubility in MCT, in words” value was “did not solve in MCT”.

(Values after patent publication US20170020890A1, “PHARMACEUTICAL COMPOSITION COMPRISING FATTY ACID DERIVATIVE” (SUCAMPO AG, priority 2015, published 2017).)
